In patent US20080249123A1, “WORTMANNIN-RAPAMYCIN CONJUGATE AND USES THEREOF” (Wyeth, priority 2007, published 2008):

What was measured:
LNCap = experiment: In vitro cell culture growth assay (MTS), LNCap; format: cell-based, Human; settings: prostate line, 3 days after drug treatment
Protocol: (§1) Human tumor cell lines (Table 3) include prostate lines LNCap and PC3MM2, breast lines MDA468, MCF7, renal line HTB44 (A498), colon line HCT116, and ovarian line OVCAR3. Cells were plated in 96-well culture plates.
(§2) One day following plating, the following conjugates (inhibitors) were added to cells: • Compound A 42,17′-linked wortmannin-adipate-rapamycin conjugate, diethylamine adduct • Compound B 42,17′-linked wortmannin-adipate-rapamycin conjugate. • Compound C 42,17′-linked wortmannin-succinate-rapamycin conjugate, N,N,N′-trimethyl 1,3-propanediamine adduct • Compound D 42,17′-linked wortmannin-adipate-rapamycin conjugate, diallylamine adduct • Compound E 42,17′-linked wortmannin-adipate-rapamycin conjugate, N,N,N′-trimethyl 1,3-propanediamine adduct • Compound F 42,17′-linked wortmannin-suberate-rapamycin conjugate, N,N,N′-trimethyl 1,3-propanediamine adduct.
(§3) Three days after drug treatment, viable cell densities were determined by metabolic conversion (by viable cells) of the MTS dye (3-(4,5-dimethylthiazol-2-yl)-5-(3 carboxymethoxyphenyl)-2-(4-sulfophenyl)-2H-tetrazolium, inner salt), a well established cell proliferation assay. The assays were performed using an assay kit purchased from Promega Corp. (Madison, Wis.) following the protocol supplied with the kit. The MTS assay results were read in a 96-well plate reader by measuring absorbance at 490 nm. The effect of each treatment was calculated as percent of control growth relative to the vehicle-treated cells grown in the same culture plate. The drug concentration that conferred 50% inhibition of growth was determined as IC50 (μg/mL). See, Table 3.

PC3MM2 = experiment: In vitro cell culture growth assay (MTS), PC3MM2; format: cell-based, Human; settings: prostate line, 3 days after drug treatment
Protocol: as §1, §2, §3

MDA468 = experiment: In vitro cell culture growth assay (MTS), MDA468; format: cell-based, Human; settings: breast line, 3 days after drug treatment
Protocol: as §1, §2, §3

MCF7 = experiment: In vitro cell culture growth assay (MTS), MCF7; format: cell-based, Human; settings: breast line, 3 days after drug treatment
Protocol: as §1, §2, §3

HTB44 (A498) = experiment: In vitro cell culture growth assay (MTS), HTB44 (A498); format: cell-based, Human; settings: renal line, 3 days after drug treatment
Protocol: as §1, §2, §3

HCT116 = experiment: In vitro cell culture growth assay (MTS), HCT116; format: cell-based, Human; settings: colon line, 3 days after drug treatment
Protocol: as §1, §2, §3

OVCAR3 = experiment: In vitro cell culture growth assay (MTS), OVCAR3; format: cell-based, Human; settings: ovarian line, 3 days after drug treatment
Protocol: as §1, §2, §3

U87MG Glioma Xenografts = experiment: Xenograft tumor efficacy study, U87MG glioma in nude mice; format: in vivo
Protocol: Female nude mice at 10 weeks of age were inoculated subcutaneously on the flank with 200 μL U87MG (human gliobastoma) tumor cell suspension. U87MG cells were suspended in full growth media and were implanted at 10 million cells per mouse. Mice were staged when tumors reached approximately 200 mm^3 in sizes. Tumor bearing mice at staging (day 0) were randomized into treatment groups (n=10). […]
The growth of tumors was monitored twice a week for the duration of the experiment. Tumor size was measured using sliding vernier calipers, and the tumor mass was calculated using the formula (length×Width^2)/2.
The experimental methods for drug preparation, dosing route, regimen, etc (listed in the Table 4) were similar to the experiments presented in the Figures. The data in Table 4 and the Figures were derived from multiple and completely different experiments. Within Table 4, the data contained separate experiments.

[1] = tested on: HT29 colon tumor xenograph; format: in vivo; settings: 1× weekly for four rounds
Protocol: The effect of 42,17′-linked wortmannin-suberate-rapamycin conjugate, N,N,N′-trimethyl 1,3-propanediamine adduct, prepared as described in Example 4 was studied in a model of human colon cancer.
The 42,17′-linked wortmannin-suberate-rapamycin conjugate, N,N,N′-trimethyl 1,3-propanediamine adduct (▪, 15 mg/kg), rapamycin (▴, 10 mg/kg), 17-hydroxywortmannin N,N,N′-trimethyl 1,3-propanediamine adduct (▾, 5 mg/kg) and a physical combination of rapamycin (10 mg/kg) and 17-hydroxywortmannin N,N,N′-trimethyl 1,3-propanediamine adduct (5 mg/kg) were dosed 1× weekly for four rounds against a HT29 colon tumor xenograph. Vehicle served as a negative control ([…]).

[2] = tested on: A498 renal cell carcinoma xenograph; experiment: In vivo anticancer efficacy in HTB44/A498 renal cell carcinoma model; settings: conjugate i.v. 1× weekly 15 mg/kg, 2 rounds; Intron A ip 3× weekly 0.5 mU, 2 weeks
Protocol: This study utilized a model of renal cancer performed as previously described. See, e.g., Yu K, et al., PWT-458, A Novel Pegylated-17-Hydroxywortmannin, Inhibits Phosphatidylinositol 3-Kinase Signaling and Suppresses Growth of Solid Tumors. Cancer Biol Ther. May 28, 2005; 4(5).
On day 23 the Vehicle group ([…]) was redosed with a combination 42,17′-linked wortmannin-suberate-rapamycin N,N,N′-trimethyl 1,3-propanediamine adduct (30 mg/kg) and the Avastin® drug (200 μg) for five rounds. On day 43, the 42,17′-linked wortmannin-suberate-rapamycin conjugate, N,N,N′-trimethyl 1,3-propanediamine adduct group (30 mg/kg) and the Avastin® drug group (200 μg) were redosed with a combination of 42,17′-linked wortmannin-suberate-rapamycin conjugate, N,N,N′-trimethyl 1,3-propanediamine adduct and the Avasting drug for three rounds.

Substance: 42,17′-linked wortmannin-suberate-rapamycin conjugate, N,N,N′-trimethyl 1,3-propanediamine adduct [Compound F]
- IC50 inhibition of tumor cell growth, LNCap (LNCap): 0.06 µg/mL
- IC50 inhibition of tumor cell growth, PC2MM2 (PC3MM2): 1.00 µg/mL
- IC50 inhibition of tumor cell growth, MDA468 (MDA468): 0.50 µg/mL
- IC50 inhibition of tumor cell growth, MCF7 (MCF7): 0.24 µg/mL
- IC50 inhibition of tumor cell growth, HTB44 (HTB44 (A498)): 2.10 µg/mL
- IC50 inhibition of tumor cell growth, HCT116 (HCT116): 12.75 µg/mL
- IC50 inhibition of tumor cell growth, OVCAR3 (OVCAR3): 6.48 µg/mL
- antitumor efficacy versus physical combination (FIG. 3) (U87MG Glioma Xenografts; 15 mg/kg, 1× weekly for 2 rounds): at least as active as the physical combination
- efficacy after a single dose (FIG. 4) (U87MG Glioma Xenografts; single dose 30, 45 and 60 mg/kg): effective in the intermittent regimen
- tolerability (FIG. 5) ([1]; 15 mg/kg, in contrast to physical combination): better tolerated
- tumor reduction (FIG. 5) ([1]; conjugate 15 mg/kg, combination rapamycin 10 mg/kg + 17-hydroxywortmannin adduct 5 mg/kg): significant tumor reduction
- antitumor activity (FIG. 6) [2]: increased antitumor activity as compared to vehicle and Intron® A reagent alone
